Results reported in patent publication US20260098072A1, “METHODS OF STIMULATING APPETITE AND/OR INCREASING BODY WEIGHT USING NON-NATURALLY OCCURRING MELANOCORTIN RECEPTOR ANTAGONIST ANALOGS” (Endevica Bio, Inc., priority 2022, published 2026).
Entries after “also recorded” stand apart in the source; their conditions may differ. Where two headings read alike, the source gives them in different places. Positions of bridges follow the written chain, without caps; N, C: chain ends. Non-standard residues stand in square brackets, D forms with d. Residues, ends and D or L forms follow the SMILES beside them. No end group written: not given here. d2Nal = N[C@H](Cc1ccc2ccccc2c1)C(=O)O; Nle = CCCC[C@H](N)C(=O)O

Key:
human MC3R = target: T1, human MC3R (Homo sapiens, UniProt P41968); test: cAMP accumulation assay (HTRF), antagonist activity at MC3R; type: cell-based
T1 construct: expressed in transfected cells; host or cells: HEK293/CRE-luc/MC3R

human MC4R = target: T2, human MC4R (Homo sapiens, UniProt P32245); test: cAMP accumulation assay (HTRF), antagonist activity at MC4R; type: cell-based
T2 construct: expressed in transfected cells; host or cells: HEK293/MC4R/CRE-GFP

LPS model of cachexia [1] = test: LPS-induced cachexia assay in rats; type: in vivo, rat
Description: The LPS model uses rats were maintained on a 12 h light/dark schedule with ad libitum access to food and water. Animals were handled daily for a minimum of three consecutive days to decrease non-specific handling stress. On the day of the experiment, individually housed animals received intraperitoneal injections of LPS dissolved in 0.5% low-endotoxin BSA, 0.9% saline or 0.5% BSA in 0.9% saline alone, and were returned to their home cage. The drug or control was administered (ICV, IP, or PO, depending on the type of study) 1-hour after LPS injection.
In the experiments performed in accordance with the present technology, a series of melanocortin receptor antagonist peptides were examined in a bacterial endotoxin inducing cachexia assay. For this assay, a rat is challenged with a single peripheral injection of lipopolysaccharide (LPS). LPS is a heat-stable lipo-polysaccharide, the major component of the outer membrane (capsule) of gram negative bacteria. In non-capsulated strains, it appears as a cell surface protein. LPS produces a strong immune response, including secretion of the proinflammatory cytokines Tumor Necrosis Factor α (TNFα) and interleukin-1 (IL-1). Proinflammatory cytokines are known factors that induce cachexia.
Rats are maintained on a 12-hour light/dark cycle. Animals are handled daily for a minimum of 5 consecutive days to acclimate them to the handling required for the experiment. […] On the day of the experiment, individually housed animals receive intraperitoneal (IP) injections of LPS dissolved in 0.5% low-endotoxin BSA, 0.9% saline or 0.5% BSA in 0.9% saline alone, and returned in their home cage. Melanocortin receptor antagonist peptides were administered (IP or by gavage, depending on the type of study) one hour after the LPS injection. The extent of cachexia is measured by the reduction in food intake, measured every two hours. The cachexia typically lasts only a single day. However, rats lose up to 5% of their body weight during a 12-hour light cycle, making up this loss plus food needed for normal growth during the 12-hour dark cycle. Thus, failure to eat appropriately during a single dark cycle is determinable from the animal's weight and any changes thereof.
A series of melanocortin receptor antagonist peptides were examined in a bacterial toxin inducing cachexia assay. In this assay, a rat was challenged with a single peripheral injection of lipopolysaccharide (LPS), a bacterial toxin that rapidly induces acute cachexia. The extent of cachexia was measured as a reduction in food intake, measured every two hours. The cachexia typically lasts only a single day.

Lewis sarcoma rat = test: Reversal of cachexia-induced lethargy; type: in vivo; settings: once-daily peripheral dosing for 48 hours (2 IP doses)
Description: In animals and humans, cachexia produces “lethargy,” i.e., the aversion to activity. Grossberg et al., J. Neurosci. 31 (31): 11376-11386. […] This therapeutic effect is dependent on a stabilized non-naturally occurring melanocortin analog C-terminal extension. Video recordings characterized control animal behavior as neo-exploratory movement about the cage, i.e., repeated “sniffing” the air to presumably sample odors (e.g., neighboring animals), grooming, and intermittent bouts of eating and drinking. Caldecott-Hazard et al., J. Neurosci. 8 (6): 1951-1961 (1988).
The animal typically remains in one position for an extended period of time (>1 minute). Occasionally it will change position, assuming the new position for an extended period. The rats show no grooming behavior, evident in the appearance of their coat and eyes.

Lewis sarcoma rat model [2] = settings: previously published results; cited from earlier work
Lewis sarcoma rat model [3] = test: Lewis sarcoma rat model of cancer cachexia; type: in vivo; settings: 2 nmol once per day
Description: This sarcoma is an aggressive form of cancer that produces significant cachexia. Popp et al., Cancer 49 (6): 1212-1220 (1982). In the protocol, “treatment” began 8-days after tumor implantation, with a significant decrease in food intake from baseline. Body composition was determined by NMR prior to tumor implantation, and on the final day of the experiment after tumor resection, by ECHO MRI (NMR). Tumor implantation produces cachexia on or about the sixth day. The non-naturally occurring melanocortin analog or saline was administered after day 8 and continued through day 12.

[4] = system: urethane-anesthetized rats; settings: rat, in vivo
Description: (§1) These studies were performed in urethane-anesthetized rats, since anesthesia is required for six-lead ECG monitoring. […] Initial selection of doses was guided by FDA exploratory IND studies with a recommendation for at least a 100-fold excess of the human dose.

LPS model of cachexia [5] = settings: Sutton et al., Peptides 29 (1): 104-111 (2008); cited from earlier work
[6] = system: urethane-anesthetized rats; test: Cardiovascular effects (MAP, heart rate, ECG) in urethane-anesthetized rats; settings: 200 nmol
Description: as §1

T1 sequence (P41968 whole entry): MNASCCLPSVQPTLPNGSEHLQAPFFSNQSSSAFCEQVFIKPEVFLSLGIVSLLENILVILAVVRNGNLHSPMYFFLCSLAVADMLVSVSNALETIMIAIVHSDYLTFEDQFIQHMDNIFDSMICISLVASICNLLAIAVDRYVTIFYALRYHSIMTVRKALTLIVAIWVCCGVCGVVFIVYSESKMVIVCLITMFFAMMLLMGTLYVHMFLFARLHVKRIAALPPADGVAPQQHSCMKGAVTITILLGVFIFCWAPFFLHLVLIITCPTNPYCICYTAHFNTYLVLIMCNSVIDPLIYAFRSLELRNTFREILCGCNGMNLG
T2 sequence (P32245 whole entry): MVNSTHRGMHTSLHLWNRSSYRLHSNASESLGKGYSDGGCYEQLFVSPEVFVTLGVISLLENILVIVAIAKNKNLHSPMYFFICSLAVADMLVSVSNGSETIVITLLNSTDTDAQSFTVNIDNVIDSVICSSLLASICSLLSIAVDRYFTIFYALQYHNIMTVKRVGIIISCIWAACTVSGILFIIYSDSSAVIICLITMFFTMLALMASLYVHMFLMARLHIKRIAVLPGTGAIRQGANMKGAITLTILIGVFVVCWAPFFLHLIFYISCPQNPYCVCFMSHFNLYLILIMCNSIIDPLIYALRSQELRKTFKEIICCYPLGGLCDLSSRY

CCCC[C@H](NC(C)=O)C(=O)N[C@H]1CC(=O)NCCCC[C@@H](C(=O)N2CCC[C@@H]2C(=O)N[C@@H](C(N)=O)C(C)C)NC(=O)[C@H](Cc2c[nH]c3ccccc23)NC(=O)[C@H](CCCNC(=N)N)NC(=O)[C@@H](Cc2ccc3ccccc3c2)NC(=O)[C@@H]2CCCN2C1=O [TCMCB02, Ac-Nle-c[Asp-Pro-dNal(2′)-Arg-Trp-Lys]-dPro-dVal-NH2] (Ac-[Nle]DP[d2Nal]RWK[dP][dV]-NH2; lactam 2-7)
Emax (human MC3R; HEK293/CRE-luc/MC3R, 0.1 nM to 1,000 nM, read-out: Max Activation %): 101% | IC50 (human MC3R; HEK293/CRE-luc/MC3R, estimated from dose-response curve): < 10 µM | Hill Coefficient (human MC3R; dose-response fit, MC3R): 1.03 | Top (%) (human MC3R; dose-response fit, MC3R): 120.45% | Emax (human MC4R; HEK293, HEK293/MC4R/CRE-GFP, 0.1 nM to 1,000 nM, read-out: Max Activation %): 120% | IC50 (human MC4R; HEK293/MC4R/CRE-GFP, estimated from dose-response curve): < 10 µM | Hill Coefficient (human MC4R; dose-response fit, MC4R): 0.69 | Top (%) (human MC4R; dose-response fit, MC4R): 127.47% | body weight gain overnight (LPS model of cachexia [1]; 2 mg/kg, IP): ~5% | food intake, 12-hours overnight (LPS model of cachexia [1]; 2 mg/kg, IP, baseline = previous 4-day average): 65 % of baseline | anti-cachectic activity after ICV administration (LPS model of cachexia [1]; ICV): equivalent to TCMCB01 | oral activity / gastrointestinal transport (LPS model of cachexia [1]; gavage (intra-gastric)): did not have oral activity; also recorded: had no oral activity | peripheral (IP) anti-cachexia activity / blood-brain barrier transport (LPS model of cachexia [1]; peripheral administration): has peripheral activity, significantly reversing LPS-induced cachexia; also recorded: produced anti-cachexia following peripheral administration | anti-cachectic activity relative to the parent compound (LPS model of cachexia [1]; rat, in vivo): 10 fold | behavior (lethargy) (Lewis sarcoma rat): restored “normal” behavior to rats

AGRP: natural melanocortin system inhibitor; naturally occurring melanocortin antagonist protein (SSRRCVRLHESCLGQQVPCCDPCATCYCRFFNAFCYCRKLGTAMNPCSRT; ends and bridges not checked; cysteine pairing not given here; UniProt O00253 83-132, looked up)
reversal of feeding / cachexia-anorexia syndrome in cachexia models (Lewis sarcoma rat model [2]): 100%

Ac-Nle-c[Asp-His-DNal(2′)-Arg-Trp-Lys]-NH2 [SHU9119]
reversal of anorexia (Lewis sarcoma rat model [3]): about 70 % of that observed with AGRP | Peak Heart Rate Response (BPM) [4]: 16 ± 5/3 ± 14 BPM | Peak MAP Response (Δ mm Hg) [4]: 16 ± 5/3 ± 14 mm Hg

Ac-NLe-c[Asp-Pro-DNal(2′)-Arg-Trp-Lys]-Pro-Val-NH2 (Ac-[Nle]DP[d2Nal]RWKPV-NH2; lactam 2-7) [PG-932]
peripheral activity (LPS model of cachexia [5]): active peripherally | Duration [6]: 4 ± 3 min | Peak Heart Rate Response (BPM) [6]: 13 ± 09 BPM | Peak MAP Response (Δ mm Hg) [6]: 5 ± 3 mm Hg
